System: 519858-162-T-J1-PDC complex spheroid growth, % test/control
Assay: Anticancer human tumor 519858-162-T-J1-PDC patient-derived colon adenocarcinoma cell line growth inhibition [Asc]
Settings: for IC50: curve of first compound; for viability, T/C: stronger effect = lower value
Summary of the method: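 Tumor cells were grown as multicellular spheroids with stromal HUVEC and mesenchymal stem cells and treated singly or in combination. Concentrations fell in half-log steps from the clinical Cmax, or from 10 microM where none was known.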

[1] = second compound 0.0316 µM, first compound 0.00316 µM
[2] = second compound 0.0316 µM, first compound 0.01 µM
[3] = second compound 0.0316 µM, first compound 0.0316 µM
[4] = second compound 0.0316 µM, first compound 0.1 µM
[5] = second compound 0.0316 µM, first compound 0.316 µM
[6] = second compound 0.0316 µM, first compound 1 µM
[7] = second compound 0.1 µM, first compound 0.00316 µM
[8] = second compound 0.1 µM, first compound 0.01 µM
[9] = second compound 0.1 µM, first compound 0.0316 µM
[10] = second compound 0.1 µM, first compound 0.1 µM
[11] = second compound 0.1 µM, first compound 0.316 µM
[12] = second compound 0.1 µM, first compound 1 µM
[13] = second compound 0.316 µM, first compound 0.00316 µM
[14] = second compound 0.316 µM, first compound 0.01 µM
[15] = second compound 0.316 µM, first compound 0.0316 µM
[16] = second compound 0.316 µM, first compound 0.1 µM
[17] = second compound 0.316 µM, first compound 0.316 µM
[18] = second compound 0.316 µM, first compound 1 µM
[19] = second compound 1 µM, first compound 0.00316 µM
[20] = second compound 1 µM, first compound 0.01 µM
[21] = second compound 1 µM, first compound 0.0316 µM
[22] = second compound 1 µM, first compound 0.1 µM
[23] = second compound 1 µM, first compound 0.316 µM
[24] = second compound 1 µM, first compound 1 µM
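Note: seven day drug exposure begun three days after spheroid seeding.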
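Throughout, for viability, T/C: 100% = DMSO vehicle wells and lower values mean less viable spheroid.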

In the case of `COc1c(OCCCN2CCOCC2)ccc2c3n(c(=NC(=O)c4cnc(N)nc4)nc12)CCN3` + Cc1c(S(C)(=O)=O)c(-c2cc(F)cc(N3CCN(c4ccc(NS(=O)(=O)c5ccc(NC(CCN6CCC(C(=O)OCCCP(=O)(O)O)CC6)CSc6ccccc6)c(S(=O)(=O)C(F)(F)F)c5)cc4)CC3)c2)c(-c2ccc(Cl)cc2)n1C(C)C, the IC50 (second compound 0.0316 µM) is reported as greater than 1 µM, the IC50 (second compound 0.1 µM) is reported as 0.578 µM and the IC50 (second compound 0.316 µM) is reported as greater than 1 µM. The IC50 (second compound 1 µM) was 0.238 µM, the IC50 (second compound 3.16 µM) was greater than 1 µM and the IC50 (second compound 10 µM) was greater than 1 µM. The viability, T/C [1] was 41.6%, the viability, T/C [2] was 97.5% and the viability, T/C [3] was 74.9%. It also gave a viability, T/C [4] of 95.5%, a viability, T/C [5] of 54.4% and a viability, T/C [6] of 52.7%. For the same compound, the viability, T/C [7] was 68.5%, the viability, T/C [8] was 94.5% and the viability, T/C [9] was 64.7%. It also gave a viability, T/C [10] of 100%, a viability, T/C [11] of 53.2% and a viability, T/C [12] of 47.1%. For the same compound, the viability, T/C [13] was 65.2%, the viability, T/C [14] was 103% and the viability, T/C [15] was 69.4%. It also gave a viability, T/C [16] of 72.7%, a viability, T/C [17] of 52.2% and a viability, T/C [18] of 53.5%. The viability, T/C [19] was 108%, the viability, T/C [20] was 97.1% and the viability, T/C [21] was 74.7%. It also gave a viability, T/C [22] of 59.8%, a viability, T/C [23] of 46.8% and a viability, T/C [24] of 42.2%. It also gave a viability, T/C (second compound 3.16 µM, first compound 0.00316 µM) of 84.1%, a viability, T/C (second compound 3.16 µM, first compound 0.01 µM) of 60.8% and a viability, T/C (second compound 3.16 µM, first compound 0.0316 µM) of 79.2%. It also gave a viability, T/C (second compound 3.16 µM, first compound 0.1 µM) of 70.3%, a viability, T/C (second compound 3.16 µM, first compound 0.316 µM) of 53.9% and a viability, T/C (second compound 3.16 µM, first compound 1 µM) of 55.6%. For the same compound, the viability, T/C (second compound 10 µM, first compound 0.00316 µM) was 78.3%, the viability, T/C (second compound 10 µM, first compound 0.01 µM) was 72.1% and the viability, T/C (second compound 10 µM, first compound 0.0316 µM) was 71.1%. For the same compound, the viability, T/C (second compound 10 µM, first compound 0.1 µM) was 45.6%, the viability, T/C (second compound 10 µM, first compound 0.316 µM) was 58.2% and the viability, T/C (second compound 10 µM, first compound 1 µM) was 46.2%.
Work on `CCN1C(C(=O)NC23CCC(C(=O)O)(CC2)CC3)C(c2cccc(Cl)c2F)C2(C(=O)Nc3cc(Cl)ccc32)C12CCCCC2` (stereo unspecified) + Cc1c(S(C)(=O)=O)c(-c2cc(F)cc(N3CCN(c4ccc(NS(=O)(=O)c5ccc(NC(CCN6CCC(C(=O)OCCCP(=O)(O)O)CC6)CSc6ccccc6)c(S(=O)(=O)C(F)(F)F)c5)cc4)CC3)c2)c(-c2ccc(Cl)cc2)n1C(C)C yielded an IC50 (second compound 0.0316 µM) greater than 3 µM, an IC50 (second compound 0.1 µM) greater than 3 µM and an IC50 (second compound 0.316 µM) greater than 3 µM. The IC50 (second compound 1 µM) was greater than 3 µM, the IC50 (second compound 3.16 µM) was greater than 3 µM and the IC50 (second compound 10 µM) was 0.748 µM. The viability, T/C (second compound 0.0316 µM, first compound 0.00949 µM) was 74.8%, the viability, T/C (second compound 0.0316 µM, first compound 0.03 µM) was 50% and the viability, T/C (second compound 0.0316 µM, first compound 0.0949 µM) was 76.3%. The viability, T/C (second compound 0.0316 µM, first compound 0.3 µM) was 79.4%, the viability, T/C (second compound 0.0316 µM, first compound 0.949 µM) was 61.8% and the viability, T/C (second compound 0.0316 µM, first compound 3 µM) was 79.5%. It also gave a viability, T/C (second compound 0.1 µM, first compound 0.00949 µM) of 83.2%, a viability, T/C (second compound 0.1 µM, first compound 0.03 µM) of 104% and a viability, T/C (second compound 0.1 µM, first compound 0.0949 µM) of 84%. The viability, T/C (second compound 0.1 µM, first compound 0.3 µM) was 87.6%, the viability, T/C (second compound 0.1 µM, first compound 0.949 µM) was 55.4% and the viability, T/C (second compound 0.1 µM, first compound 3 µM) was 71%. It also gave a viability, T/C (second compound 0.316 µM, first compound 0.00949 µM) of 80.8%, a viability, T/C (second compound 0.316 µM, first compound 0.03 µM) of 95.1% and a viability, T/C (second compound 0.316 µM, first compound 0.0949 µM) of 84.9%. For the same compound, the viability, T/C (second compound 0.316 µM, first compound 0.3 µM) was 78%, the viability, T/C (second compound 0.316 µM, first compound 0.949 µM) was 65.7% and the viability, T/C (second compound 0.316 µM, first compound 3 µM) was 54.1%. It also gave a viability, T/C (second compound 1 µM, first compound 0.00949 µM) of 67.7%, a viability, T/C (second compound 1 µM, first compound 0.03 µM) of 69.4% and a viability, T/C (second compound 1 µM, first compound 0.0949 µM) of 75.5%. It also gave a viability, T/C (second compound 1 µM, first compound 0.3 µM) of 56%, a viability, T/C (second compound 1 µM, first compound 0.949 µM) of 93.4% and a viability, T/C (second compound 1 µM, first compound 3 µM) of 49.8%. It also gave a viability, T/C (second compound 3.16 µM, first compound 0.00949 µM) of 57.5%, a viability, T/C (second compound 3.16 µM, first compound 0.03 µM) of 56.8% and a viability, T/C (second compound 3.16 µM, first compound 0.0949 µM) of 73.6%. For the same compound, the viability, T/C (second compound 3.16 µM, first compound 0.3 µM) was 46.8%, the viability, T/C (second compound 3.16 µM, first compound 0.949 µM) was 49.3% and the viability, T/C (second compound 3.16 µM, first compound 3 µM) was 60.9%. For the same compound, the viability, T/C (second compound 10 µM, first compound 0.00949 µM) was 55.2%, the viability, T/C (second compound 10 µM, first compound 0.03 µM) was 65.4% and the viability, T/C (second compound 10 µM, first compound 0.0949 µM) was 30.6%. It also gave a viability, T/C (second compound 10 µM, first compound 0.3 µM) of 71.8%, a viability, T/C (second compound 10 µM, first compound 0.949 µM) of 43.1% and a viability, T/C (second compound 10 µM, first compound 3 µM) of 36.7%.
For `CCN1CCN(Cc2ccc(Nc3ncc(F)c(-c4cc(F)c5nc(C)n(C(C)C)c5c4)n3)nc2)CC1` + CNC(C)C(=O)NC1CN(S(=O)(=O)c2cccc(S(=O)(=O)N3CCC4CCC(C(=O)NC(c5ccccc5)c5ccccc5)N4C(=O)C(NC(=O)C(C)NC)C3)c2)CCC2CCC(C(=O)NC(c3ccccc3)c3ccccc3)N2C1=O, the IC50 (second compound 0.00316 µM) was greater than 1 µM, the IC50 (second compound 0.01 µM) was greater than 1 µM and the IC50 (second compound 0.0316 µM) was greater than 1 µM. For the same compound, the IC50 (second compound 0.1 µM) was greater than 1 µM, the IC50 (second compound 0.316 µM) was greater than 1 µM and the IC50 (second compound 1 µM) was greater than 1 µM. For the same compound, the viability, T/C (second compound 0.00316 µM, first compound 0.00316 µM) was 98%, the viability, T/C (second compound 0.00316 µM, first compound 0.01 µM) was 99.6% and the viability, T/C (second compound 0.00316 µM, first compound 0.0316 µM) was 127%. It also gave a viability, T/C (second compound 0.00316 µM, first compound 0.1 µM) of 115%, a viability, T/C (second compound 0.00316 µM, first compound 0.316 µM) of 84.4% and a viability, T/C (second compound 0.00316 µM, first compound 1 µM) of 70%. For the same compound, the viability, T/C (second compound 0.01 µM, first compound 0.00316 µM) was 108%, the viability, T/C (second compound 0.01 µM, first compound 0.01 µM) was 107% and the viability, T/C (second compound 0.01 µM, first compound 0.0316 µM) was 95.1%. For the same compound, the viability, T/C (second compound 0.01 µM, first compound 0.1 µM) was 64.7%, the viability, T/C (second compound 0.01 µM, first compound 0.316 µM) was 79.1% and the viability, T/C (second compound 0.01 µM, first compound 1 µM) was 93%. It also gave a viability, T/C [1] of 116%, a viability, T/C [2] of 112% and a viability, T/C [3] of 94.8%. The viability, T/C [4] was 96.6%, the viability, T/C [5] was 86.4% and the viability, T/C [6] was 77.2%. It also gave a viability, T/C [7] of 128%, a viability, T/C [8] of 120% and a viability, T/C [9] of 106%. For the same compound, the viability, T/C [10] was 89.3%, the viability, T/C [11] was 84.2% and the viability, T/C [12] was 76.3%. For the same compound, the viability, T/C [13] was 77%, the viability, T/C [14] was 91.7% and the viability, T/C [15] was 120%. The viability, T/C [16] was 67.6%, the viability, T/C [17] was 47.6% and the viability, T/C [18] was 71.7%. The viability, T/C [19] was 115%, the viability, T/C [20] was 117% and the viability, T/C [21] was 107%. It also gave a viability, T/C [22] of 80.1%, a viability, T/C [23] of 77.9% and a viability, T/C [24] of 83.4%.

Source: PubChem BioAssay AID1963421 (Molecular Pharmacology Branch, DTP, NCI, 2024)
